From article PMC4569415, “Pro-Oxidant Activity of Amine-Pyridine-Based Iron Complexes Efficiently Kills Cancer and Cancer Stem-Like Cells” (PLoS ONE, 2015)
Counter-ions that a name gives are not always drawn.

Assays:
[1] = test system: CAPAN-1 cells; assay: MTT cytotoxicity assay; assay type: cell-based, human; conditions: MTT, 48 h of compound exposure
Experimental: (§1) The cytotoxic activity of the compounds was determined by MTT reduction assay as described. Compounds were diluted in Milli-Q water to obtain 1 mmol/L stock solutions. Appropriate aliquots of these solutions were diluted in the corresponding cell culture medium to obtain the final working concentrations. Aliquots of 5000 1BR3G cells, 6000 MCF-7, 6000 PC-3 cells, 10 000 CAPAN-1 cells, 4000 MCF 10A cells, 4000 HMLE cells or 4000 CCD-18Co cells were seeded in 96-well plates, 24 h prior to the treatments. Hematological cell lines were seeded at 400 000 cells/mL. Cells were treated with the corresponding compound at concentrations ranging from 0 to 100 μmol/L for 48 h. Three replicates for each compound were used. The IC50 was established for each compound by standard non-linear regression and curve fitting using GraphPad Prism (Graph Pad software Inc., La Jolla, CA, USA).

[2] = test system: MCF-7 cells; assay: MTT cytotoxicity assay; assay type: cell-based, human; conditions: MTT, 48 h of compound exposure
Experimental: as §1

[3] = test system: HMLE; assay: MTT cytotoxicity assay; assay type: cell-based; conditions: Homo sapiens, 48 h of treatment, non malignant cells
Experimental: as §1

[4] = test system: CCD-18Co; assay: MTT cytotoxicity assay; assay type: cell-based; conditions: Homo sapiens, 48 h of treatment, non malignant cells
Experimental: as §1

[5] = test system: MCF-10A; assay: MTT cytotoxicity assay; assay type: cell-based; conditions: Homo sapiens, 48 h of treatment, non malignant cells
Experimental: as §1

[6] = test system: JURKAT; assay: MTT cytotoxicity assay; assay type: cell-based; conditions: Homo sapiens, 48 h of treatment
Experimental: as §1

[7] = test system: Z-138; assay: MTT cytotoxicity assay; assay type: cell-based; conditions: Homo sapiens, 48 h of treatment
Experimental: as §1

[8] = test system: 1BR3G; assay: MTT cytotoxicity assay; assay type: cell-based; conditions: Homo sapiens, 48 h of treatment, non malignant cells
Experimental: as §1

[9] = test system: PC-3; assay: MTT cytotoxicity assay; assay type: cell-based; conditions: Homo sapiens, 48 h of treatment
Experimental: as §1

[10] = Hemolytic assay; assay type: cell-based; conditions: human, erythrocyte suspension of fresh human blood (5% vol/vol)
Experimental: The hemolytic activity of the compounds at 100 μmol/L was evaluated by determining hemoglobin release from erythrocyte suspensions of fresh human blood (5% vol/vol) as described.

[11] = test system: MCF-7 cells; assay: Cellular labile iron pool with calcein-AM; assay type: cell-based, human; conditions: MCF-7
[12] = test system: MCF-7 and CAPAN-1 cells; assay: MTT cell viability with modulators (QVD-Oph, FeCl2); assay type: cell-based, human; conditions: FeCl2 alone at 1, 10 or 100 μmol/L, 48 h
Experimental: as §1
Fig 4 Induction of caspase activity. (A) The indicated cell lines were treated for 48 h with compounds 1, 2 and 5 (10 μmol/L) and caspase 3/7 activity was measured as indicated in Materials and Methods. Bar charts show the fold increase in caspase activity relative to untreated (control) and represent the mean±SD from three independent experiments performed in triplicate. (B) MCF-7 and CAPAN-1 cells were treated for 48 h with the ligands (10 μM) in the absence (-) or presence (+) of the pan-caspase inhibitor QVD-Oph (20 μM) and cell viability was measured with the MTT assay. […] Data represents the mean ± SD of 3 independent experiments performed in triplicate. The differences between absence and presence of QVD-OPh treatment were statistically significant at * p<0.05, **p<0.01 and ***p<0.001.
Fig 9 Effects of iron on 1, 2 and 5 activity. (A) Effect of 2 h FeCl2 pre-incubation (FeCl2 p) (dotted line) or co-incubation (FeCl2 c) (dashed line) at 1, 10 or 100 μmol/L on the cytotoxicity of 2 (5 μmol/L) in MCF-7 and CAPAN-1 cells. FeCl2 alone was included as a control (solid line). Cell viability was determined after 48 h of treatment by the MTT assay. (B) Effect of FeCl2 pre-incubation or co-incubation (100 μmol/L) on the cytotoxicity of 2 (5 μmol/L), 1 and 5 (10 μmol/L). Cells treated with the ligands alone were included as a reference (control). (C) ROS induction in CAPAN-1 cells after 24 h treatment with 2 (10 μmol/L) alone, together with FeCl2 or after FeCl2 pre-incubation (at 100 μmol/L). Results are presented as a percentage of untreated cells and represent mean±SD of 3 independent experiments. *p < 0.05 versus control cells.

[13] = test system: CAPAN-1 cells; assay: Cellular labile iron pool with calcein-AM; assay type: cell-based, human; conditions: CAPAN-1, 100 μmol/L, 24 h
Experimental: The cellular labile iron pool was determined with calcein-AM. CAPAN-1 cells (125 000 cells/ well) were seeded in 24-well plates and incubated for 24 h. Then, cells were treated for 24 h with 10 μmol/L of compound 1, 2 or 5 at 37°C. In some experiments, cells were incubated for 2 h with 100 μmol/L of DFO or 100 μmol/L FeCl2. Cells exposed to the vehicle alone were used as a control. After treatments, cells were washed with PBS and incubated with calcein-AM (0.25 μmol/L) for 30 min at 37°C in the dark. Subsequently, cells were washed and collected with trypsin and the geometric mean fluorescence intensity of 10 000 cells was determined by flow cytometry as described.

[14] = test system: CS-like HMLER-shEcad cells; assay: MTT cytotoxicity assay in cancer stem-like cells; assay type: cell-based, human; conditions: 48 h
Experimental: as §1
(§2) Fig 2 Cell viability assay. (A) Cytotoxic activity of compounds 1, 2, and 5 against cancer cells. The indicated cell lines were treated for 48 h with ligands (10 μmol/L) and cell viability was measured with the MTT assay. Data represents the percentage of viable cells relative to untreated cells (control). (B) Cytotoxicity of doxorubicin and compounds 1, 2 and 5 against CS-like cells. CS-like HMLER-shEcad cells and non-CS-like HMLER isogenic parental cells were treated for 48 h with graded concentrations of doxorubicin, 1, 2 and 5. Cell viability was measured with the MTT assay. For each treatment, the percentage of viable cells relative to untreated cells is indicated. Data represents the mean±SD of 3 independent experiments performed in triplicate.

[15] = test system: HMLER cells; assay: MTT cytotoxicity assay in non-CS-like parental cells; assay type: cell-based; conditions: Homo sapiens, 48 h
Experimental: as §1, §2

Row | Structure (SMILES) | IC50 [3] | IC50 [4] | IC50 [5] | IC50 [6] | IC50 [7] | IC50 [8] | IC50 [9] | hemolysis at 100 µM [10] | IC50 ([1]; Homo sapiens, CAPAN-1) | IC50 ([2]; Homo sapiens, MCF7) | further results
1 | N.N.[Cl][Pt][Cl] [Cisplatin, reference compound] | – | – | – | – | – | – | – | – | – | – | IC50 [1]: 2.2 ± 0.3 µM; IC50 [2]: 2.4 ± 0.4 µM
2 | CN(Cc1ccccn1)[C@H]1CCCC[C@@H]1N(C)Cc1ccccn1 [Compound 3] | 32.5 ± 3.8 µM | > 100 µM | 39.7 ± 2.9 µM | > 100 µM | 16.5 ± 1.4 µM | 45 ± 1 µM | 35 ± 4.2 µM | 0% | 27.7 ± 2.9 µM | 40.6 ± 2.5 µM | –
3 | CN1CCN(C)CCN(Cc2ccccn2)CC1 [Compound 4] | 47.7 ± 4.5 µM | > 100 µM | > 100 µM | > 100 µM | 23.1 ± 1.8 µM | 78 ± 8.5 µM | > 100 µM | 0% | 32 ± 10.4 µM | 88.5 ± 0.7 µM | –
4 | CC(=O)N(O)CCCCCNC(=O)CCC(=O)N(O)CCCCCNC(=O)CCC(=O)N(O)CCCCCN [DFO, deferoxaminemesylate salt, reference compound] | – | – | – | – | – | – | – | – | – | – | calcein fluorescence increase after DFO incubation [11]: 132.1±16.5%
5 | [Cl][Fe][Cl] [FeCl2, reference compound] | – | – | – | – | – | – | – | – | – | – | effect on cell viability [12]: did not affect the viability; calcein fluorescence intensity, % of control cells [13]: 74.2±15.5%
6 | COc1cccc2c1C(=O)c1c(O)c3c(c(O)c1C2=O)C[C@@](O)(C(=O)CO)C[C@@H]3O[C@H]1C[C@H](N)[C@H](O)[C@H](C)O1 [doxorubicin, reference compound] | – | – | – | – | – | – | – | – | – | – | fold increase in IC50, HMLER-shECad vs HMLER [14]: ~ 3 fold; IC50 ([14]; Homo sapiens): 0.3 ± 0.02 µM; IC50 [15]: 0.1 ± 0.02 µM
